From ChEMBL document CHEMBL1687866, “Efficient microwave-assisted synthesis of novel 3-aminohexahydrocoumarin derivatives and evaluation on their cytotoxicity” (Eur J Med Chem, 2011)
In brackets after ≈: the same amount, converted by molar mass.

What was measured:
[1] = Cytotoxicity against human SW1116 cells assessed as cell viability rate at 0.1 ug/ml after 24 hrs by MTT assay; format: functional, SW 1116
[2] = Cytotoxicity against human SW1116 cells assessed as cell viability rate at 10 ug/ml after 24 hrs by MTT assay; format: functional, SW 1116
[3] = Cytotoxicity against human SW1116 cells assessed as cell viability rate at 1 ug/ml after 24 hrs by MTT assay; format: functional, SW 1116
SGC-7901 = experiment: Cytotoxicity against human SGC7901 cells after 20 hrs by MTT assay; format: functional, cell-based; conditions: SGC-7901, 20 h

Row | SMILES | Cell viability [1] [%] | Cell viability [2] [%] | Cell viability [3] [%] | IC50 (SGC-7901) [µg/mL]
1 | CC1(C)CC(=O)C2=C(C1)OC(=O)C(NC(=O)c1ccccc1)C2c1ccco1 (stereo not drawn) | 79.26 | 42.02 | 67.67 | 0.259 (≈ 0.683 µM)
2 | CC1(C)CC(=O)C2=C(C1)OC(=O)C(NC(=O)c1ccccc1)C2c1ccc(F)cc1 (mixture of isomers) | 95.76 | 59.03 | 91.39 | 0.436
3 | CC1(C)CC(=O)C2=C(C1)OC(=O)C(NC(=O)c1ccccc1)C2c1ccc(Cl)cc1 (mixture of isomers) | 77.19 | 64.34 | 77.81 | > 100
4 | CC1(C)CC(=O)C2=C(C1)OC(=O)C(NC(=O)c1ccccc1)C2c1ccc([N+](=O)[O-])cc1 (mixture of isomers) | 107.38 | 46.6 | 73.4 | 0.905
5 | CC1(C)CC(=O)C2=C(C1)OC(=O)C(NC(=O)c1ccccc1)C2c1ccccc1Cl (mixture of isomers) | 114.23 | 85.08 | 97.92 | 0.239
6 | CC1(C)CC(=O)C2=C(C1)OC(=O)C(NC(=O)c1ccccc1)C2c1ccccc1Br (mixture of isomers) | 102.11 | 55.74 | 99.3 | 5.13
7 | Cc1ccc(C2C3=C(CC(C)(C)CC3=O)OC(=O)C2NC(=O)c2ccccc2)cc1 (mixture of isomers) | 77.88 | 82.67 | 83.63 | 2.69
8 | COc1cc(C2C3=C(CC(C)(C)CC3=O)OC(=O)C2NC(=O)c2ccccc2)cc(OC)c1OC (mixture of isomers) | 91.48 | 92.18 | 81.59 | 0.158
9 | CC1(C)CC(=O)C2=C(C1)OC(=O)C(NC(=O)c1ccccc1)C2c1cccs1 (mixture of isomers) | 94.51 | 50.51 | 104.31 | 0.612
10 | O=C1CCCC2=C1C(c1ccc(F)cc1)C(NC(=O)c1ccccc1)C(=O)O2 (mixture of isomers) | 90.86 | 83.22 | 91.07 | 0.812
11 | O=C1CCCC2=C1C(c1ccc(Cl)cc1)C(NC(=O)c1ccccc1)C(=O)O2 (mixture of isomers) | 91.48 | 69.78 | 89.77 | > 100
12 | O=C1CCCC2=C1C(c1ccc([N+](=O)[O-])cc1)C(NC(=O)c1ccccc1)C(=O)O2 (mixture of isomers) | 73.6 | 55.22 | 100.6 | 1.09
13 | O=C1CCCC2=C1C(c1ccccc1Cl)C(NC(=O)c1ccccc1)C(=O)O2 (mixture of isomers) | 109.5 | 87.56 | 102.59 | 0.226
14 | O=C1CCCC2=C1C(c1ccccc1Br)C(NC(=O)c1ccccc1)C(=O)O2 (mixture of isomers) | 50.51 | 99.27 | 92.19 | 3.94
15 | Cc1ccc(C2C3=C(CCCC3=O)OC(=O)C2NC(=O)c2ccccc2)cc1 (mixture of isomers) | 113.97 | 107.87 | 106.66 | 1.86
16 | COc1cc(C2C3=C(CCCC3=O)OC(=O)C2NC(=O)c2ccccc2)cc(OC)c1OC (mixture of isomers) | 110.34 | 94.07 | 109.73 | 1.21
17 | O=C1CCCC2=C1C(c1cccs1)C(NC(=O)c1ccccc1)C(=O)O2 (mixture of isomers) | 79.97 | 69.73 | 81.65 | 0.701
18 | O=C1CCCC2=C1C(c1ccco1)C(NC(=O)c1ccccc1)C(=O)O2 (mixture of isomers) | 95.53 | 74.22 | 97.92 | 1.3
19 | COc1cccc2c1C(=O)c1c(O)c3c(c(O)c1C2=O)C[C@@](O)(C(=O)CO)C[C@@H]3O[C@H]1C[C@H](N)[C@H](O)[C@H](C)O1.Cl [DOXORUBICIN HYDROCHLORIDE] |  | 67.34 |  | 
